Test results published in patent US8212051B2, “Process for the preparation of pure irbesartan” (Lek Pharmaceuticals, D.D., priority 2006, dated 2012).
Where a name gives a salt, the structure may show the parent alone.

Assays:
[1] = Solubility in boiling acetone (amount of acetone needed to dissolve 1 g); assay type: physicochemical; conditions: per 1 g substance
[2] = Stability against degradation when dissolved in hot mixture of solvents and extracted; assay type: physicochemical; conditions: salt dissolved in hot mixture of solvents and extracted; compared with purification via HCl salt

| Structure (SMILES) | amount of acetone needed to dissolve 1 g [1] [mL] | stability against degradation [2] |
| --- | --- | --- |
| CCCCC1=NC2(CCCC2)C(=O)N1Cc1ccc(-c2ccccc2-c2nnn[nH]2)cc1 [irbesartan HBr, hydrobromide acid addition salt of 2-n-butyl-3-[[2′-(tetrazol-5-yl)biphenyl-4-yl]methyl]-1.3-diazaspiro[4.4]non-1-en-4-one] | 6 | more stable against degradation |
| CCCCC1=NC2(CCCC2)C(=O)N1Cc1ccc(-c2ccccc2-c2nnn[nH]2)cc1 [irbesartan HCl] | 15 |  |
| CCCCC1=NC2(CCCC2)C(=O)N1Cc1ccc(-c2ccccc2-c2nnn[nH]2)cc1 [irbesartan, 2-n-butyl-3-[[2′-(tetrazol-5-yl)biphenyl-4-yl]methyl]-1.3-diazaspiro[4.4]non-1-en-4-one] | 100 |  |
